IC50 data for twelve molecules are collected here from patent US9896438B2, “2,2,2-trifluoroethyl-thiadiazines” (Hoffmann-La Roche Inc., priority 2014, dated 2018).

Structures can show the parent of a compound that is named as a salt.

The target of the experiment is T1, BACE1 (Homo sapiens, UniProt P56817).
T1 construct: endogenous in cells; host or cells: HEK293 APP cells
Nature of the experiment: Cellular Aβ-lowering assay (Abeta 40 AlphaLISA in HEK293 APP cells). The class given is cell-based. The conditions noted are these: 18-20 hrs incubation, Aβ 40 in culture supernatants by AlphaLISA. On the procedure: Cellular Aβ-Lowering Assay:
The Abeta 40 AlphaLISA Assay can be used. The HEK293 APP cells were seeded in 96 well Microtiter plates in cell culture medium (Iscove's, plus 10% (v/v) fetal bovine serum, penicillin/streptomycin) to about 80% confluency and the compounds were added at a 3× concentration in ⅓ volume of culture medium (final DMSO concentration was kept at 1% v/v). After 18-20 hrs incubation at 37° C. and 5% CO2 in a humidified incubator, the culture supernatants were harvested for the determination of Aβ 40 concentrations using Perkin-Elmer Human Amyloid beta 1-40 (high specificity) Kit (Cat# AL275C).
In a Perkin-Elmer White Optiplate-384 (Cat#6007290), 2 ul culture supernatants were combined with 2 μl of a 10× AlphaLISA Anti-hAβAcceptor beads+Biotinylated Antibody Anti-Aβ 1-40 Mix (50 μg/mL/5 nM). After 1 hour room temperature incubation, 16 μl of a 1.25× preparation of Streptavidin (SA) Donor beads (25 μg/mL) were added and incubated for 30 minutes in the Dark. Light Emission at 615 nm was then recorded using En Vision-Alpha Reader. Levels of Aβ 40 in the culture supernatants were calculated as percentage of maximum signal (cells treated with 1% DMSO without inhibitor). The IC50 values were calculated using the Excel XLfit software.

T1 sequence (P56817 46-501): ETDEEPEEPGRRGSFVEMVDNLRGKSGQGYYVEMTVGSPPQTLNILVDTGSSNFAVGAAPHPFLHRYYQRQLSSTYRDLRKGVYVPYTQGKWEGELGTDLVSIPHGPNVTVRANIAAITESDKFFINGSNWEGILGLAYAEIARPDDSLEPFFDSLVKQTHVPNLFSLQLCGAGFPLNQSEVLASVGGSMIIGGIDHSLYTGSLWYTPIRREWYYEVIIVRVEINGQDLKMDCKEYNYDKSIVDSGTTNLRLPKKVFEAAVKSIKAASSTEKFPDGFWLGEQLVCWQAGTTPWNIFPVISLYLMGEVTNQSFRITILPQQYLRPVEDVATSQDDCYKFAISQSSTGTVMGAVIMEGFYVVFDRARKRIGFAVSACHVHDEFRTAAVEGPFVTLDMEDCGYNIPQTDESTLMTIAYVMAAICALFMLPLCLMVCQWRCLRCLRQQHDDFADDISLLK

On to `Cc1cc(C#N)cnc1C(=O)Nc1ccc(F)c([C@]2(C)C[S@@](=O)(=NCC(F)(F)F)N(C)C(N)=N2)n1` [Example 3, N-[6-[(1R,5R)-3-amino-2,5-dimethyl-1-oxo-1-(2,2,2-trifluoroethylimino)-6H-1,2,4-thiadiazin-5-yl]-5-fluoro-2-pyridyl]-5-cyano-3-methyl-pyridine-2-carboxamide 2,2,2-trifluoroacetic Acid Salt], for which the IC50 (as a rule, the concentration that inhibits the measured activity by half) is 0.991 nM.

Regarding `CN1C(N)=N[C@](C)(c2nc(NC(=O)c3ccc(C#N)cn3)ccc2F)C[S@@]1(=O)=NCC(F)(F)F` [Example 4, N-[6-[(1R,5R)-3-amino-2,5-dimethyl-1-oxo-1-(2,2,2-trifluoroethylimino)-6H-1,2,4-thiadiazin-5-yl]-5-fluoro-2-pyridyl]-5-cyano-pyridine-2-carboxamide 2,2,2-trifluoroacetic Acid Salt], the midpoint of inhibition, the IC50, lay at 2.7 nM.

As for `Cc1cc(F)cnc1C(=O)Nc1ccc(F)c([C@]2(C)C[S@@](=O)(=NCC(F)(F)F)N(C)C(N)=N2)n1` [Example 5, N-[6-[(1R,5R)-3-amino-2,5-dimethyl-1-oxo-1-(2,2,2-trifluoroethylimino)-6H-1,2,4-thiadiazin-5-yl]-5-fluoropyridin-2-yl]-5-fluoro-3-methylpyridine-2-carboxamide 2,2,2-trifluoroacetic Acid Salt], the IC50 was determined as 13.9 nM.

Molecule `CN1C(N)=N[C@](C)(c2nc(NC(=O)c3ccc(OCF)cn3)ccc2F)C[S@@]1(=O)=NCC(F)(F)F` [Example 6, N-[6-[(1R,5R)-3-amino-2,5-dimethyl-1-oxo-1-(2,2,2-trifluoroethylimino)-6H-1,2,4-thiadiazin-5-yl]-5-fluoropyridin-2-yl]-5-(fluoromethoxy)pyridine-2-carboxamide 2,2,2-trifluoroacetic Acid Salt] gave an IC50 of 3.84 nM.

In turn, `CC#CCOc1cnc(C(=O)Nc2ccc(F)c([C@]3(C)C[S@@](=O)(=NCC(F)(F)F)N(C)C(N)=N3)n2)cn1` [Example 7, N-[6-[(1R,5R)-3-amino-2,5-dimethyl-1-oxo-1-(2,2,2-trifluoroethylimino)-6H-1,2,4-thiadiazin-5-yl]-5-fluoropyridin-2-yl]-5-but-2-ynoxypyrazine-2-carboxamide; 2,2,2-trifluoroacetic Acid] registered an IC50 of 0.737 nM.

`COc1cnc(C(=O)Nc2ccc(F)c([C@]3(C)C[S@@](=O)(=NCC(F)(F)F)N(C)C(N)=N3)n2)cn1` [Example 8, N-[6-[(1R,5R)-3-amino-2,5-dimethyl-1-oxo-1-(2,2,2-trifluoroethylimino)-6H-1,2,4-thiadiazin-5-yl]-5-fluoropyridin-2-yl]-5-methoxypyrazine-2-carboxamide 2,2,2-trifluoroacetic Acid Salt] yielded an IC50 of 10.1 nM.

The molecule `CN1C(N)=N[C@](C)(c2nc(NC(=O)c3ccc(OCC(F)(F)F)cn3)ccc2F)C[S@@]1(=O)=NCC(F)(F)F` [Example 9, N-[6-[(1R,5R)-3-amino-2,5-dimethyl-1-oxo-1-(2,2,2-trifluoroethylimino)-6H-1,2,4-thiadiazin-5-yl]-5-fluoropyridin-2-yl]-5-(2,2,2-trifluoroethoxy)pyridine-2-carboxamide 2,2,2-trifluoroacetic Acid Salt] gave an IC50 of 50.7 nM.

As to `CN=S1(=O)CC(C)(c2nc(NC(=O)c3ncc(C#N)cc3C)ccc2F)N=C(N)N1CC(F)(F)F` (stereo not drawn) [Example 13, N-[6-[3-amino-5-methyl-1-methylimino-1-oxo-2-(2,2,2-trifluoroethyl)-6H-1,2,4-thiadiazin-5-yl]-5-fluoropyridin-2-yl]-5-cyano-3-methylpyridine-2-carboxamide; 2,2,2-trifluoroacetic Acid], the 50% inhibitory concentration (IC50) was 134 nM.

On to `CN=S1(=O)C[C@@](C)(c2nc(NC(=O)c3ncc(C#N)cc3C)ccc2F)N=C(N)N1CC(F)(F)F` (stereo partly drawn) [Example 15, N-[6-[(5R)-3-amino-5-methyl-1-methylimino-1-oxo-2-(2,2,2-trifluoroethyl)-6H-1,2,4-thiadiazin-5-yl]-5-fluoropyridin-2-yl]-5-cyano-3-methylpyridine-2-carboxamide; 2,2,2-trifluoroacetic acid], for which the IC50 is 0.986 nM.

`CN=S1(=O)C[C@@](C)(c2nc(NC(=O)c3ncc(C#N)cc3C)ccc2F)N=C(N)N1CC(F)(F)F` (stereo partly drawn) [Example 16, N-[6-[(5R)-3-amino-5-methyl-1-methylimino-1-oxo-2-(2,2,2-trifluoroethyl)-6H-1,2,4-thiadiazin-5-yl]-5-fluoropyridin-2-yl]-5-cyano-3-methylpyridine-2-carboxamide; 2,2,2-trifluoroacetic Acid] displayed an IC50 of 0.593 nM.

Molecule `CN=S1(=O)C[C@@](C)(c2nc(NC(=O)c3ncc(C#N)cc3Cl)ccc2F)N=C(N)N1CC(F)(F)F` (stereo partly drawn) [Example 17, N-(6-((5R)-3-amino-5-methyl-1-(methylimino)-1-oxido-2-(2,2,2-trifluoroethyl)-5,6-dihydro-2H-1,2,4-thiadiazin-5-yl)-5-fluoropyridin-2-yl)-3-chloro-5-cyanopicolinamide] displayed an IC50 of 0.292 nM.

`CN=S1(=O)C[C@@](C)(c2nc(NC(=O)c3ncc(F)cc3C)ccc2F)N=C(N)N1CC(F)(F)F` (stereo partly drawn) [Example 18, N-[6-[(5R)-3-amino-5-methyl-1-methylimino-1-oxo-2-(2,2,2-trifluoroethyl)-6H-1,2,4-thiadiazin-5-yl]-5-fluoropyridin-2-yl]-5-fluoro-3-methylpyridine-2-carboxamide; 2,2,2-trifluoroacetic acid] came in with a 50% inhibitory concentration (IC50) of 74.5 nM.
